Assay results: patent US20140309210A1, “INDAZOLE COMPOUNDS, COMPOSITIONS AND METHODS OF USE THEREOF” (Genentech, Inc., priority 2011, published 2014)
pKi: −log10 of the molar value.

molecular target: T1, purified ITK (Invitrogen PV3875) (Homo sapiens, UniProt Q08881); experiment: ITK peptide phosphorylation assay (Caliper LabChip or LCMS); type: biochemical; conditions: Table 2, Examples 1-140, class symbols
T1 construct: purchased Invitrogen PV3875
T1 sequence (Q08881 1-620): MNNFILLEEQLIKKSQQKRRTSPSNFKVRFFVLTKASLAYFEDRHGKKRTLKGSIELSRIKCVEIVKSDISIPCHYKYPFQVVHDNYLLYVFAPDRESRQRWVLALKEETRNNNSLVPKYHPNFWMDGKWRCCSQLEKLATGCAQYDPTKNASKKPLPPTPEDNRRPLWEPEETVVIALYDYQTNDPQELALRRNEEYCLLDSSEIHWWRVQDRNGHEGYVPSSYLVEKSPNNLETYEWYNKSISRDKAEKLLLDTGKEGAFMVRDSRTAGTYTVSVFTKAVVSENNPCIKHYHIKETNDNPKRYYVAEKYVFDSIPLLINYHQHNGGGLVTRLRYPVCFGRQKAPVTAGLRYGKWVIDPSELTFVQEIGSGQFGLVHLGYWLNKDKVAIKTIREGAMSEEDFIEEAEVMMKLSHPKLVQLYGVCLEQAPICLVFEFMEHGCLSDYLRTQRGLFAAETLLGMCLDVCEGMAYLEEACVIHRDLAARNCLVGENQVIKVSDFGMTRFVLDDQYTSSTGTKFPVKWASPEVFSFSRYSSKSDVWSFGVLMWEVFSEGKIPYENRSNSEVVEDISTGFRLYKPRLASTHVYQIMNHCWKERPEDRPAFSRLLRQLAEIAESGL
Procedure: The ability of purified ITK (Invitrogen PV3875) to catalyze peptide phosphorylation is monitored using a Caliper LabChip 3000 microfluidic unit (Caliper assay) or by liquid chromatography-mass spectrometry (LCMS) using a Waters Acquity system (LCMS assay). […] Reactions are quenched by the addition of 2,2′,2″,2′″-(ethane-1,2-diyldinitrilo)tetraacetic acid (50 mM final). Non-phosphorylated substrate and phosphorylated product peptides are separated and quantified using a Caliper LabChip 3000 instrument. […] Reactions are quenched by the addition of trichloroacetic acid (5% v/v final). Non-phosphorylated substrate and phosphorylated product peptides are separated by ultra performance LC and detected by a coupled triple quadrupole MS device applying multiple reaction monitoring (MRM) for quantification. The area of the MRM-extracted mass signal is used to assess the inhibition by test compounds. Equilibrium dissociation constant (Ki) values for ITK inhibitors are calculated from plots of activity vs. inhibitor concentration using Morrison's quadratic equation that accounts for the potential of tight binding, and by also applying the conversion factor that accounts for competitive inhibition and the concentration of ATP used in the assay relative to its apparent Michaelis constant (Km,app).

SMILES | pKi
O=C(O)c1ccc(Cn2cc(NC(=O)c3n[nH]c4cc(-c5cn[nH]c5)ccc34)cn2)o1 [Example 35, 5-(4-{[6-(1H-Pyrazol-4-yl)-1H-indazole-3-carbonyl]-amino}-pyrazol-1-ylmethyl)-furan-2-carboxylic acid] | 7.00 to 9.00
O=C(Nc1cnn(Cc2cccc(-c3ccccn3)c2)c1)c1n[nH]c2cc(-c3cn[nH]c3)ccc12 [Example 38, 6-(1H-Pyrazol-4-yl)-1H-indazole-3-carboxylic acid [1-(3-pyridin-2-yl-benzyl)-1H-pyrazol-4-yl]-amide] | 7.00 to 9.00
O=C(Nc1cnn(Cc2csc(N3CCOCC3)n2)c1)c1n[nH]c2cc(-c3cn[nH]c3)ccc12 [Example 41, N-[1-[(2-morpholinothiazol-4-yl)methyl]pyrazol-4-yl]-6-(1H-pyrazol-4-yl)-1H-indazole-3-carboxamide] | 7.00 to 9.00
CN1CCN(c2nc(Cn3cc(NC(=O)c4n[nH]c5cc(-c6cn[nH]c6)ccc45)cn3)cs2)CC1 [Example 42, N-[1-[[2-(4-methylpiperazin-1-yl)thiazol-4-yl]methyl]pyrazol-4-yl]-6-(1H-pyrazol-4-yl)-1H-indazole-3-carboxamide] | 7.00 to 9.00
O=C(Nc1cnn(Cc2cscn2)c1)c1n[nH]c2cc(-c3cc[nH]n3)ccc12 [Example 43, 6-(1H-Pyrazol-3-yl)-1H-indazole-3-carboxylic acid (1-thiazol-4-ylmethyl-1H-pyrazol-4-yl)-amide] | 7.00 to 9.00
N#Cc1cncc(-c2ccc3c(C(=O)Nc4cnn(Cc5cscn5)c4)n[nH]c3c2)c1 [Example 44, 6-(5-Cyano-pyridin-3-yl)-1H-indazole-3-carboxylic acid (1-thiazol-4-ylmethyl-1H-pyrazol-4-yl)-amide] | 7.00 to 9.00
Nc1ccc(-c2ccc3c(C(=O)Nc4cnn(Cc5cscn5)c4)n[nH]c3c2)cn1 [Example 45, 6-(6-Amino-pyridin-3-yl)-1H-indazole-3-carboxylic acid (1-thiazol-4-ylmethyl-1H-pyrazol-4-yl)-amide] | 7.00 to 9.00
CC(C)(O)c1cccc(Cn2cc(NC(=O)c3n[nH]c4cc(-c5cn[nH]c5)ccc34)cn2)c1 [Example 47, 6-(1H-Pyrazol-4-yl)-1H-indazole-3-carboxylic acid {1-[3-(1-hydroxy-1-methyl-ethyl)-benzyl]-1H-pyrazol-4-yl}-amide] | 7.00 to 9.00
O=C(Nc1cnn(Cc2ccncc2)c1)c1n[nH]c2ccccc12 [Example 52, N-(1-(pyridin-4-ylmethyl)-1H-pyrazol-4-yl)-1H-indazole-3-carboxamide] | 7.00 to 9.00
Cc1ccc(Cn2cc(NC(=O)c3n[nH]c4ccccc34)cn2)cc1 [Example 53, N-(1-(4-methylbenzyl)-1H-pyrazol-4-yl)-1H-indazole-3-carboxamide] | 7.00 to 9.00
O=C(Nc1cnn(Cc2cccnc2)c1)c1n[nH]c2ccccc12 [Example 54, N-(1-(pyridin-3-ylmethyl)-1H-pyrazol-4-yl)-1H-indazole-3-carboxamide] | 7.00 to 9.00
Cc1cccc(Cn2cc(NC(=O)c3n[nH]c4ccccc34)cn2)c1 [Example 55, N-(1-(3-methylbenzyl)-1H-pyrazol-4-yl)-1H-indazole-3-carboxamide] | 7.00 to 9.00
Cc1ccccc1Cn1cc(NC(=O)c2n[nH]c3ccccc23)cn1 [Example 56, N-(1-(2-methylbenzyl)-1H-pyrazol-4-yl)-1H-indazole-3-carboxamide] | 7.00 to 9.00
O=C(Nc1cnn(Cc2cc(Cl)cc(Cl)c2)c1)c1n[nH]c2ccccc12 [Example 57, N-(1-(3,5-dichlorobenzyl)-1H-pyrazol-4-yl)-1H-indazole-3-carboxamide] | 7.00 to 9.00
O=C(Nc1cnn(Cc2ccc(Cl)cc2)c1)c1n[nH]c2ccccc12 [Example 58, N-(1-(4-chlorobenzyl)-1H-pyrazol-4-yl)-1H-indazole-3-carboxamide] | 7.00 to 9.00
O=C(Nc1cnn(Cc2cccc(C(F)(F)F)c2)c1)c1n[nH]c2ccccc12 [Example 59, N-(1-(3-(trifluoromethyl)benzyl)-1H-pyrazol-4-yl)-1H-indazole-3-carboxamide] | 7.00 to 9.00
O=C(Nc1cnn(Cc2ccccc2C(F)(F)F)c1)c1n[nH]c2ccccc12 [Example 60, N-(1-(2-(trifluoromethyl)benzyl)-1H-pyrazol-4-yl)-1H-indazole-3-carboxamide] | < 7.00
O=C(Nc1cnn(Cc2c(Cl)cccc2Cl)c1)c1n[nH]c2ccccc12 [Example 61, N-(1-(2,6-dichlorobenzyl)-1H-pyrazol-4-yl)-1H-indazole-3-carboxamide] | < 7.00
O=C(Nc1cnn(Cc2ccc(C(F)(F)F)cc2)c1)c1n[nH]c2ccccc12 [Example 62, N-(1-(4-(trifluoromethyl)benzyl)-1H-pyrazol-4-yl)-1H-indazole-3-carboxamide] | 7.00 to 9.00
O=C(Nc1cnn(Cc2cccc(F)c2)c1)c1n[nH]c2ccccc12 [Example 63, N-(1-(3-fluorobenz)-1H-pyrazol-4-yl)-1H-indazole-3-carboxamide] | 7.00 to 9.00
COc1ccccc1Cn1cc(NC(=O)c2n[nH]c3ccccc23)cn1 [Example 64, N-(1-(2-methoxybenzyl)-1H-pyrazol-4-yl)-1H-indazole-3-carboxamide] | < 7.00
O=C(Nc1cnn(Cc2ccccc2F)c1)c1n[nH]c2ccccc12 [Example 65, N-(1-(2-fluorobenzyl)-1H-pyrazol-4-yl)-1H-indazole-3-carboxamide] | 7.00 to 9.00
COc1ccc(Cn2cc(NC(=O)c3n[nH]c4ccccc34)cn2)cc1 [Example 66, N-(1-(4-methoxybenzyl)-1H-pyrazol-4-yl)-1H-indazole-3-carboxamide] | 7.00 to 9.00

Next, values leading:

pKi | SMILES
7.00 to 9.00 | NC(=O)c1cccc(Cn2cc(NC(=O)c3n[nH]c4cc(-c5cccnc5)ccc34)cn2)c1 [Example 31, N-[1-[(3-carbamoylphenyl)methyl]pyrazol-4-yl]-6-(3-pyridyl)-1H-indazole-3-carboxamide]
7.00 to 9.00 | Nc1cc(Cn2cc(NC(=O)c3n[nH]c4cc(-c5cccnc5)ccc34)cn2)ccn1 [Example 32, N-[1-[(2-amino-4-pyridyl)methyl]pyrazol-4-yl]-6-(3-pyridyl)-1H-indazole-3-carboxamide]
7.00 to 9.00 | CNC(=O)c1ccc(Cn2cc(NC(=O)c3n[nH]c4cc(-c5cccnc5)ccc34)cn2)o1 [Example 33, N-[1-[[5-(methylcarbamoyl)-2-furyl]methyl]pyrazol-4-yl]-6-(3-pyridyl)-1H-indazole-3-carboxamide]
7.00 to 9.00 | O=C(Nc1cnn(Cc2cscn2)c1)c1n[nH]c2cc(-c3cccnc3)ccc12 [Example 34, 6-(3-pyridyl)-N-[1-(thiazol-4-ylmethyl)pyrazol-4-yl]-1H-indazole-3-carboxamide]
9.00 to 11.00 | O=C(Nc1cnn(Cc2cccc(-c3cccnc3)c2)c1)c1n[nH]c2cc(-c3cn[nH]c3)ccc12 [Example 36, 6-(1H-Pyrazol-4-yl)-1H-indazole-3-carboxylic acid [1-(3-pyridin-3-yl-benzyl)-1H-pyrazol-4-yl]-amide]
9.00 to 11.00 | O=C(Nc1cnn(Cc2cccc(-c3ccncc3)c2)c1)c1n[nH]c2cc(-c3cn[nH]c3)ccc12 [Example 37, 6-(1H-Pyrazol-4-yl)-1H-indazole-3-carboxylic acid [1-(3-pyridin-4-yl-benzyl)-1H-pyrazol-4-yl]-amide]
9.00 to 11.00 | CN1CCN(c2cccc(Cn3cc(NC(=O)c4n[nH]c5cc(-c6cn[nH]c6)ccc45)cn3)c2)CC1 [Example 39, N-[1-[[3-(4-methylpiperazin-1-yl)phenyl]methyl]pyrazol-4-yl]-6-(1H-pyrazol-4-yl)-1H-indazole-3-carboxamide]
9.00 to 11.00 | O=C(Nc1cnn(Cc2cccc(N3CCOCC3)c2)c1)c1n[nH]c2cc(-c3cn[nH]c3)ccc12 [Example 40, N-[1-[(3-morpholinophenyl)methyl]pyrazol-4-yl]-6-(1H-pyrazol-4-yl)-1H-indazole-3-carboxamide]
9.00 to 11.00 | O=C(O)c1cccc(Cn2cc(NC(=O)c3n[nH]c4cc(-c5cn[nH]c5)ccc34)cn2)c1 [Example 46, 3-(4-{[6-(1H-Pyrazol-4-yl)-1H-indazole-3-carbonyl]-amino}-pyrazol-1-ylmethyl)-benzoic acid]
9.00 to 11.00 | O=C(Nc1cnn(Cc2cccc(-c3nn[nH]n3)c2)c1)c1n[nH]c2cc(-c3cn[nH]c3)ccc12 [Example 48, 6-(1H-Pyrazol-4-yl)-1H-indazole-3-carboxylic acid {1-[3-(2H-tetrazol-5-yl)-benzyl]-1H-pyrazol-4-yl}-amide]

same assay, conditions: Table 3, specific values for certain examples

SMILES | pKi
O=C(Nc1cnn(Cc2cccnc2)c1)c1n[nH]c2ccccc12 [Example 54, N-(1-(pyridin-3-ylmethyl)-1H-pyrazol-4-yl)-1H-indazole-3-carboxamide] | 7.27
O=C(Nc1cnn(Cc2ccc(Cl)cc2)c1)c1n[nH]c2ccccc12 [Example 58, N-(1-(4-chlorobenzyl)-1H-pyrazol-4-yl)-1H-indazole-3-carboxamide] | 7.41
COc1ccc(Cn2cc(NC(=O)c3n[nH]c4ccccc34)cn2)cc1 [Example 66, N-(1-(4-methoxybenzyl)-1H-pyrazol-4-yl)-1H-indazole-3-carboxamide] | 7.42
